# Where two headings read alike, the source gives them in different places.
# How the values were obtained:
# NTR1 = target: T1, NTR1 (Homo sapiens, UniProt P30989); experiment: ^125I-NT binding to PC3 cells; settings: for NT Binding Assay: ability to enhance NT binding in PC3 cells; for Effect on NT binding in PC3 cells: n=3; for NT binding increased as much as / up to (fold): maximal enhancement of NT binding to PC3 cells
# T1 construct: endogenous in cells; host or cells: PC3 cells (ATCC)
# [1] = parameters: key: +: All of the compounds listed in Table 12 were anticancerous; settings: from anticancer literature; cited from earlier work
# [2] = system: NT-induced inositol phosphate (IP) formation in PC3 cells; experiment: NT-induced IP formation in PC3 cells; type: cell-based; settings: for IC50: Homo sapiens, PC-3; for IP Formation Efficacy (% decrease): maximal % decrease in NT-induced IP formation
# PC3 cells = experiment: NT-induced proliferation of PC3 cells (^3H-thymidine); type: cell-based; settings: Homo sapiens, PC-3; 24 hours, 10 nM NT; read-out: IC50 for inhibition of NT-induced proliferation
# [3] = general reducing agents and antioxidants
# [4] = [agent] that decreased IP formation by 40%
# [5] = [agent] giving 75% increase in NT binding
# [6] = maximal % increase in NT binding observed for each agent
# [7] = [agent] giving 50% decrease in IP formation
# T1 sequence (P30989 whole entry): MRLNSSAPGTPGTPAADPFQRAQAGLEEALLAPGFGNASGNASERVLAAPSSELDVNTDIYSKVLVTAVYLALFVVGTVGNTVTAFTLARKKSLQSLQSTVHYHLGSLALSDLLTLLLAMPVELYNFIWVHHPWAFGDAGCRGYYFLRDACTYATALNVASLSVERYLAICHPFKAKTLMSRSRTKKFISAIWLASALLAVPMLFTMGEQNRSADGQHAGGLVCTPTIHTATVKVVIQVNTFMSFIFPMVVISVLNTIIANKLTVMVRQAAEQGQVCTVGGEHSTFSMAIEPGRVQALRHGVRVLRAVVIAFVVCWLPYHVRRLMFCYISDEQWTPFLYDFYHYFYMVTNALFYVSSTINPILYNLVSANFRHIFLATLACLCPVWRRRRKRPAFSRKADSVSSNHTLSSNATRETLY
molecule,measurement,setting,value
"O[C@H](CS)[C@H](O)CS (racemic) [DTT, dithiothreitol]",Effect on NT binding,NTR1; [3],not much affected
O=CC[C@@H](O)[C@H](O)[C@H](O)CO [2-deoxyglucose],NT Binding Assay,NTR1,+
same,Anti-cancer,[1],+
Oc1cc(O)c2c(c1)O[C@H](c1ccc(O)c(O)c1)[C@@H](O)C2 [(+)-catechin],Effect on NT binding in PC3 cells,NTR1; used at 10-100 μM,without effect
CC1=C(C)C(=O)C(CCCCC#CCCCC#CCO)=C(C)C1=O [AA861],NT Binding Efficacy % increase,NTR1; LOX blockers,155 % increase
same,IC50,[2]; [4],7 µM
COc1cc2ncnc(Nc3cccc(Cl)c3)c2cc1OC [AG1478],NT Binding Assay,NTR1,+
same,Anti-cancer,[1],+
O=c1cc(-c2ccc(O)cc2)oc2cc(O)cc(O)c12 [Apigenin],NT Binding Assay,NTR1,+
same,Anti-cancer,[1],+
"CC(=O)OCOC(=O)CN(CC(=O)OCOC(C)=O)c1ccccc1OCCOc1ccccc1N(CC(=O)OCOC(C)=O)CC(=O)OCOC(C)=O [BAPTA-AM, 1,2-bis(o-aminophenoxy)ethane-N,N,N′,N′-tetraacetic acid tetra(acetoxymethyl) ester]",Effect on NT binding,NTR1; 50 μM BAPTA-AM,nor was NT binding altered
"COc1ccc(O)c(C(C)(C)C)c1 [BHA, butylated hydroxy anisole]",EC50,NTR1; [5],110 µM
"O=c1cc(-c2ccccc2)oc2cc(O)c(O)c(O)c12 [Baicalein, baicalein]",IC50,[2]; [4],> 100 µM
same,Anti-cancer,[1],+
COC(=O)C1=C(C)NC(C)=C([N+](=O)[O-])C1c1ccccc1C(F)(F)F (stereo not drawn) [BayK-8644],EC50,NTR1; [5],16 µM
"O=C(/C=C/c1ccc(O)c(O)c1)OCCc1ccccc1 [CAPE, caffeic acid phenethyl ester]",NT Binding Efficacy % increase,NTR1; LOX blockers,220 % increase
same,NT binding increased as much as / up to (fold),NTR1,≤ 2.8 fold
same,IC50,[2]; [4],18 µM
"COc1ccc([C@@H]2Sc3ccccc3N(CCN(C)C)C(=O)[C@@H]2OC(C)=O)cc1 [Diltiazem, diltiazem]",NT Binding Efficacy % increase,NTR1; [6],38 % increase
same,NT binding increased as much as / up to (fold),NTR1,≤ 1.4 fold
c1ccc2c(c1)[I+]c1ccccc1-2 [Diphenylene iodonium],NT Binding Assay,NTR1,+
same,IC50,[2]; [7],35 µM
same,Anti-cancer,[1],+
"O=C(O)CN(CCOCCOCCN(CC(=O)O)CC(=O)O)CC(=O)O [EGTA, ethylene glycol tetra-acetic acid]",Increase in NT binding,NTR1,38±6 % increase
COC(=O)c1c(C)[nH]c(C)c1C(=O)c1ccccc1Cc1ccccc1 [FPL-64176],EC50,NTR1; [5],29 µM
COc1ccc2c(c1)c(C1=C(c3c[nH]c4ccccc34)C(=O)NC1=O)cn2CCCN(C)C [Go-6983],NT Binding Assay,NTR1,+
same,Anti-cancer,[1],+
"Cc1cc2c(C(C)C)c(O)c(O)c(C=O)c2c(O)c1-c1c(C)cc2c(C(C)C)c(O)c(O)c(C=O)c2c1O [Gossypol, gossypol]",IC50,[2]; [4],20 µM
CCCc1c(OCCCCc2nnn[nH]2)ccc(C(C)=O)c1O [LY171883],NT Binding Efficacy % increase,NTR1; LOX blockers,157 % increase
same,EC50,NTR1; [agent] giving 100% increase in NT binding,34 µM
CC(=O)N[C@@H](CS)C(=O)O [N-acetyl cysteine],Effect on NT binding in PC3 cells,NTR1; used at 1-3 mM,without effect
"COCCOC(=O)C1=C(C)NC(C)=C(C(=O)OC(C)C)C1c1cccc([N+](=O)[O-])c1 (stereo not drawn) [NIM, nimodipine]",IC50,[2]; [7],6 µM
O=C(NCCCCCCNC(=O)ON=C1CCCCC1)ON=C1CCCCC1 [RHC-80267],NT Binding Assay,NTR1,+
same,Anti-cancer,[1],+
"CC1=C(/C=C/C(C)=C/C=C/C(C)=C/C(=O)O)C(C)(C)CCC1 [Retinoic Acid, retinoic acid]",NT Binding Efficacy % increase,NTR1; LOX blockers,180 % increase
same,IC50,[2]; [4],7 µM
Cn1cc(C2=C(c3ccc(Cl)cc3Cl)C(=O)NC2=O)c2ccccc21 [SB-216763],NT Binding Assay,NTR1,+
same,Anti-cancer,[1],+
Cc1cc(C)c(/C=C2\C(=O)Nc3ccccc32)[nH]1 [SU5416],Anti-cancer,[1],+
CC(=O)O[C@H]1C(=O)[C@@]2(C)[C@H]([C@H](OC(=O)c3ccccc3)[C@]3(O)C[C@H](OC(=O)[C@H](O)[C@@H](NC(=O)c4ccccc4)c4ccccc4)C(C)=C1C3(C)C)[C@]1(OC(C)=O)CO[C@@H]1C[C@@H]2O [Taxol],NT Binding Assay,NTR1,+
O=C1O[C@H]([C@@H](O)CO)C(O)=C1O [ascorbic acid],Effect on NT binding,NTR1; [3],not much affected
same,Effect on NT binding in PC3 cells,NTR1; used at 20-180 μM,ineffective
N.N.[Cl][Pt][Cl] [cis-platin],NT Binding Assay,NTR1,+
same,Anti-cancer,[1],+
CC/C(=C(/CC)c1ccc(O)cc1)c1ccc(O)cc1 [diethylstilbesterol],NT Binding Assay,NTR1,+
same,Anti-cancer,[1],+
O=c1oc2c(O)c(O)cc3c(=O)oc4c(O)c(O)cc1c4c23 [ellagic acid],Effect on NT binding in PC3 cells,NTR1; used at 10-100 μM,without effect
CC(C)=CCCC(C)=CCCC(C)=CCO [farnesol],NT Binding Assay,NTR1,+
same,Anti-cancer,[1],+
CCOC(=O)C1=C(C)NC(C)=C(C(=O)OC)C1c1cccc(Cl)c1Cl (stereo not drawn) [felodipine],IC50,[2]; [7],1 µM
Fc1ccc(C(c2ccc(F)cc2)N2CCN(C/C=C/c3ccccc3)CC2)cc1 [flunarizine],NT Binding Efficacy % increase,NTR1; [6],45 % increase
O=c1c(-c2ccc(O)cc2)coc2cc(O)cc(O)c12 [genistein],NT Binding Assay,NTR1,+
same,Anti-cancer,[1],+
N[C@@H](CCC(=O)N[C@@H](CS)C(=O)NCC(=O)O)C(=O)O [glutathione],Effect on NT binding in PC3 cells,NTR1; used at 1-3 mM,without effect
O=c1cc(-c2ccc(O)c(O)c2)oc2cc(O)cc(O)c12 [luteolin],EC50,NTR1; [5],40 µM
same,NT Binding Assay,NTR1,+
same,IC50,[2]; [7],38 µM
same,Anti-cancer,[1],+
Clc1ccc(COC(Cn2ccnc2)c2ccc(Cl)cc2Cl)c(Cl)c1 (stereo not drawn) [miconazole],IP Formation Efficacy (% decrease),[2],54 % decrease
COC(=O)C1=C(C)NC(C)=C(C(=O)OCCN(C)Cc2ccccc2)C1c1cccc([N+](=O)[O-])c1 (stereo not drawn) [nicardipine],IC50,PC3 cells,100 nM
same,IC50,[2]; [7],3 µM
CCOC(=O)C1=C(C)NC(C)=C(C(=O)OC)C1c1cccc([N+](=O)[O-])c1 (stereo not drawn) [nitrendipine],IC50,[2]; [7],2 µM
c1cnc2c(c1)ccc1cccnc12 [o-phenanthroline],NT Binding Assay,NTR1,+
same,Anti-cancer,[1],+
Cc1ncc(CO)c(CO)c1O [pyridoxine],Effect on NT binding,NTR1; [3],not much affected
same,Effect on NT binding in PC3 cells,NTR1; used at 20-180 μM,ineffective
Cc1cc2nc3c(=O)[nH]c(=O)nc-3n(C[C@H](O)[C@H](O)[C@H](O)CO)c2cc1C [riboflavin],Effect on NT binding,NTR1; [3],not much affected
same,Effect on NT binding in PC3 cells,NTR1; used at 20-180 μM,ineffective
C=C(C)[C@H]1Cc2c(ccc3c2O[C@@H]2COc4cc(OC)c(OC)cc4[C@@H]2C3=O)O1 [rotenone],NT Binding Assay,NTR1,+
same,Anti-cancer,[1],+
C[C@@H]1O[C@@H](OC[C@H]2O[C@@H](Oc3c(-c4ccc(O)c(O)c4)oc4cc(O)cc(O)c4c3=O)[C@H](O)[C@@H](O)[C@@H]2O)[C@H](O)[C@H](O)[C@H]1O [rutin],Efficacy for altering NT binding to NTR,NTR1; flavonoids,inactive
[BH4-].[Na+] [sodium borohydride],Effect on NT binding,NTR1,not much affected
same,Effect on NT binding in PC3 cells,NTR1; used at 1-3 mM,without effect
COc1ccc2cc1Oc1ccc(cc1)C[C@H]1c3cc(c(OC)cc3CCN1C)Oc1c(OC)c(OC)cc3c1[C@H](C2)N(C)CC3 [tetrandrine],NT Binding Efficacy % increase,NTR1; [6],35 % increase
Cc1ncc(C[n+]2csc(CCO)c2C)c(N)n1 [thiamine],Effect on NT binding,NTR1; [3],not much affected
same,Effect on NT binding in PC3 cells,NTR1; used at 20-180 μM,ineffective
CN1CCN(CCCN2c3ccccc3Sc3ccc(C(F)(F)F)cc32)CC1 [trifluoperazine],NT Binding Efficacy % increase,NTR1; [6],16 % increase
same,IC50,[2]; [agent] at which IP formation was decreased by 50%,> 100 µM
same,IP Formation Efficacy (% decrease),[2],14 % decrease
Cc1c(C)c2c(c(C)c1O)CCC(C)(C(=O)O)O2 (stereo not drawn) [trolox],Effect on NT binding,NTR1; [3],not much affected
same,Effect on NT binding in PC3 cells,NTR1; used at 10-100 μM,without effect
"CC1=CC(=O)c2ccccc2C1=O [vitamin K, menadione]",NT binding (% of control) at 180 µM,NTR1; 180 μM,168 ± 8%
Cc1c(C)c2c(c(C)c1O)CC[C@@](C)(CCC[C@H](C)CCC[C@H](C)CCCC(C)C)O2 [α-tocoferol],Effect on NT binding in PC3 cells,NTR1; used at 20-180 μM,ineffective
CC1=C(/C=C/C(C)=C/C=C/C(C)=C/C=C/C=C(C)/C=C/C=C(C)/C=C/C2=C(C)CCCC2(C)C)C(C)(C)CCC1 [β-carotene],Effect on NT binding in PC3 cells,NTR1; used at 20-180 μM,ineffective
(−)-epigallocatechin gallate,Effect on NT binding in PC3 cells,NTR1; used at 10-100 μM,without effect
Mevinolin,NT Binding Assay,NTR1,+
same,Anti-cancer,[1],+
antimycin A,Anti-cancer,[1],+
bisindole maleimide,NT Binding Assay,NTR1,+
same,Anti-cancer,[1],+

# Source: US7507547B2, “Screening assays for antioxidants and antiproliferative compounds” (University of Massachusetts, priority 2004, dated 2009)
